# Read-outs that look alike come from different tables or passages of the source.
# Columns and labels:
# Format in all cases: cell-based, mice
# hTNFtg SFs [1] = test: CCL5 and CCL20 ELISA on hTNFtg synovial fibroblasts; conditions: Mus musculus, Fibroblast; for activity at 10 µM: compound 10 μM; for activity at 10 µM / activity at 50 µM / activity at 25 µM: 48 h; for activity at 50 µM: compound 50 μM; for activity at 25 µM: compound 25 μM
# Protocol: Primary SFs were derived from a) human TNF transgenic (hTNFTg) mice (Keffer et al., 1991) as well as from b) CBA/C57BL6 wild type mice.
# hTNFtg mice overexpress human TNF, resulting in the spontaneous development of arthritis.
# (§1) SFs were isolated as previously described by Armaka et al., 2009, from the ankle joints of hTNFtg or CBA/C57BL6 wild type (wt) littermates. Briefly, ankle joints were digested with Collagenase IV (Sigma Aldrich, C5138) for 45 minutes at a 37° C. shaking waterbath and after 5 days in culture at 37° C. and 5% CO2, a depletion of CD45+ lineage cells was performed using a Biotin anti-mouse CD45 Antibody (Biolegend, 103104) and Dynabeads™ Biotin Binder (ThermoFisher 11047), according to the manufacturer's protocol. After 10 days in culture, SFs were seeded overnight (O/N) at a concentration of 2×10^4 cells/well in a 96 well plate in 1×DMEM, supplemented with 100 U/ml Penicillin Streptomycin (P/S) and 10% Fetal Bovine Serum (FBS). The next day the cells were synchronized by starvation that included their O/N plating in low serum medium (0.5% FBS). Following the O/N starvation, the hTNFg and the WT SFs were treated with different concentrations of the experimental compounds. The SFs were at the same time activated with 10 ng/ml hTNF (Peprotech, 300-01A). 48 h following the treatment the cell culture supernatants were collected and analyzed by ELISA (R&S Systems, Duoset, DY478 and DY760) according to the manufacturer's protocol, for the detection of CCL5/Rantes and CCL20/Mip3, two known inflammatory chemokines. The IC50 values were determined as the concentration of the compounds required to reduce the levels of secreted CCL5 and CCL20 by 50%.
# Table 7 summarizes the reduction of CCL5 and CCL20 levels achieved with the test compounds of the invention. Data are presented as percentages of the chemokine levels detected in treated cells compared to 100% levels of the chemokines detected in the untreated cells.
# Table 8 summarizes the values of IC50 and toxicity for the test compounds of the invention. Dose response curves regarding the WT SFs were produced with 10 ng/ml hTNF stimulation for all compounds, with the exception of the compounds E and F, where WT cells were induced using hTNF at 1 ng/ml: […]
# hTNF-activated wt SFs = test: Legendplex pro-inflammatory chemokine panel on hTNF-activated wt synovial fibroblasts; conditions: 10 ng/ml hTNF
# Protocol: as §1
# The supernatants of the SFs were also analyzed using the Mouse pro-inflammatory chemokine panel from Legendplex™ (Biolegend, 740007), according to manufacturer's instructions, for the simultaneous detection of 13 Mouse chemokines.
# The anti-inflammatory potential of the test compounds 51, 52, 53, E and F on SFs was also assessed using the Mouse pro-inflammatory chemokine panel from Legendplex that allows the simultaneous detection of 13 Mouse chemokines. The effect of compound 51 on SFs was assessed at a dose of 25 μM, while the effect of the test compounds 52, 53, E and F was assessed at a dose of 10 μM. Numbers represent percentages of the chemokine levels secreted from the treated SFs compared to 100% levels of the chemokines detected in the untreated cells (i.e. either hTNFTg SFs or hTNF-activated wt SFs).
# Table 9 summarizes the effect of the test compounds 51, 52 and 53, E and F on the inflammatory chemokines secreted from activated SFs. WT SFs were stimulated with 10 ng/ml hTNF.
# hTNFtg SFs [2] = test: Wound healing assay on activated SFs; conditions: compound 10 μM, 24 h
# Protocol: Activated SFs were isolated from hTNFtg mice as described above and they were seeded in 24 well plates at a concentration of 2×10^5 cells/well. The next day a straight-line wound was created on the formed cell monolayer using the tip of a 200 μl pipette. Images of the wounds were captured by microscope at a magnification of 4× at two time points. Time point 0 (i.e. the time of the creation of the wound) as well as 24 h later (t=24 h). The area of the wound was measured at each time point using the software ImageJ.
# The percent closure of the wound was calculated using the following formula: [(wound area at t0−wound area at t24)/wound area at t0]*100
# The assay for each compound was repeated four times.
# The inventors wanted to further explore the potential of the test compounds to reduce the activated phenotype of the arthritogenic SFs and studied their effect on a wound healing assay. In this assay a wound is formed on a monolayer of SFs and the rate of closure of this wound is indicative of the proliferation and migration capacity of the SFs, i.e. the slower the closure of the wound, the less proliferative and migratory are the SFs.
# The potential ability of the compounds 53, E and F to inhibit the proliferation and migration of activated SFs, was assessed at a concentration of 10 μM and the wound healing assay was performed using hTNFtg SFs, as these cells show increased proliferation and migration potential (Vasilopoulos et al., 2007). The data shown in Table 10 where the percentages of wound closure area are presented in hTNFtg untreated as well as compound treated cells.
# [3] = read-out: CCL5 hTNFtg, percentage of level in untreated cells
# [4] = read-out: CCL20 hTNFtg, percentage of level in untreated cells
# [5] = read-out: IC50 (μM) CCL5 hTNFtg
# [6] = read-out: IC50 (μM) CCL20 hTNFtg
SMILES,activity at 10 µM (hTNFtg SFs [1]; [3]) [%],activity at 10 µM (hTNFtg SFs [1]; [4]) [%],activity at 50 µM (hTNFtg SFs [1]; [3]) [%],activity at 50 µM (hTNFtg SFs [1]; [4]) [%],IC50 (hTNFtg SFs [1]; [5]) [µM],IC50 (hTNFtg SFs [1]; [6]) [µM],"EOTAXIN WT, percentage of level in untreated cells (hTNF-activated wt SFs; compound 25 μM) [%]","KC WT, percentage of level in untreated cells (hTNF-activated wt SFs; compound 25 μM) [%]","LIX WT, percentage of level in untreated cells (hTNF-activated wt SFs; compound 25 μM) [%]","MCP1 WT, percentage of level in untreated cells (hTNF-activated wt SFs; compound 25 μM) [%]","EOTAXIN WT, percentage of level in untreated cells (hTNF-activated wt SFs; compound 10 μM) [%]","KC WT, percentage of level in untreated cells (hTNF-activated wt SFs; compound 10 μM) [%]","LIX WT, percentage of level in untreated cells (hTNF-activated wt SFs; compound 10 μM) [%]","MCP1 WT, percentage of level in untreated cells (hTNF-activated wt SFs; compound 10 μM) [%]",% of wound closure (mean ± SD) (hTNFtg SFs [2]) [%],activity at 25 µM (hTNFtg SFs [1]; [3]) [%],activity at 25 µM (hTNFtg SFs [1]; [4]) [%]
"COc1cc(N)c(Cl)cc1C(=O)NCC1(c2ccc(Cl)cc2)CCCCC1 [Compound 51, 4-amino-5-chloro-N-((1-(4-chlorophenyl)cyclohexyl)methyl)-2-methoxybenzamide]",46,16,47,13,2.6,1,7,41,3,59,,,,,,,
"COc1cc(N)c(Cl)cc1C(=O)NCC1(c2ccc(Cl)cc2)CCCCCC1 [Compound 52, 4-amino-5-chloro-N-((1-(4-chlorophenyl)cycloheptyl)methyl)-2-methoxybenzamide]",50,67,29,48,4.2,15,,,,,26,34,23,40,,,
"COc1cc(N)c(Cl)cc1C(=O)NCC1(Nc2ccc(Cl)cc2)CCCCCC1 [Compound 53, 4-amino-5-chloro-N-((1-((4-chlorophenyl)amino)cycloheptyl)methyl)-2-methoxybenzamide]",40,22,34,22,2.3,3.2,,,,,59,68,24,57,67.7 ± 16.2,,
"COc1cc(N)c(Cl)cc1C(=O)NCC1(Nc2ccc(F)cc2Cl)CCCCCC1 [E, 4-amino-5-chloro-N-((1-((2-chloro-4-fluorophenyl)amino)cycloheptyl)methyl)-2-methoxybenzamide]",8.2,14,,,1.69,4.07,,,,,,,,,73 ± 31.5,5,20
"COc1cc(N)c(Cl)cc1C(=O)NCC1(Nc2cccc(OC(F)(F)F)c2)CCCCCC1 [F, 4-amino-5-chloro-2-methoxy-N-((1-((3-(trifluoromethoxy)phenyl)amino)cycloheptyl)methyl)benzamide]",0,24,,,< 0.01,< 0.01,,,,,,,,,63 ± 11.8,0,29
